We go through 18 compounds from patent publication US20190062305A1, “PYRIDYL OR PYRAZINYL COMPOUNDS CARRYING A METHYL-BOUND ALPHA-AMINO ACID AMIDE GROUP” (ABBVIE DEUTSCHLAND GMBH & CO. KG, priority 2015, published 2019).

Data set [1] is described as follows: Metabolic stability in human liver microsomes, unbound intrinsic clearance (Cl int/fu mic). The format is in vitro ADME. Conditions: human, liver microsomes, pH 7.4, human liver microsomes 0.25 mg/mL, 0.5 μM compound, NADPH, read-out: Cl int, mic unb. (h) [l/h/kg] (unbound intrinsic clearance, human). The procedure, abridged:
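Compound (0.5 µM) was incubated with human liver microsomes (0.25 mg/mL) in pH 7.4 phosphate buffer at 37 °C with 1.0 mM NADPH, sampling from 0–30 min. Depletion was followed by LC-MS/MS, and CLint was derived from first-order t1/2 per mg protein. Microsomal unbound fraction came from 4 h equilibrium dialysis at 37 °C, giving CLint/fu mic.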
Background: Microsomes from liver hold many membrane-bound enzymes, among them those of drug oxidation.

In a further data set the target is T1, 5-HT2C receptor (Homo sapiens, UniProt P28335).
T1 construct: host or cells: U2OS
Kind of data set: Human 5-HT2C functional assay (beta-arrestin2 recruitment, U2OS_HTR2C_β-Arrestin cells). The format is cell-based. Particulars: for EC50: beta-arrestin2 recruitment, U2OS_HTR2C_β-Arrestin cells, 1.5 h incubation, read-out: EC50 5-HT2C (potency in functional assay); for Emax: relative efficacy vs response to 10 μM 5-HT or maximal 5-HT effect (100%). The procedure, abridged: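 U2OS cells expressing HTR2C with β-galactosidase complementation, switched to 1% serum medium 24 h post-plating, were treated next day with compound for 1.5 h; chemiluminescence read. Response expressed as % of 10 µM 5-HT or maximal 5-HT effect; EC50 from 4-parameter variable-slope fit.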
For orientation: Recruitment of arrestin is a read-out of receptor activation apart from second messengers.

Where a name gives a salt, the structure may show the parent alone.

T1 sequence (P28335 33-458): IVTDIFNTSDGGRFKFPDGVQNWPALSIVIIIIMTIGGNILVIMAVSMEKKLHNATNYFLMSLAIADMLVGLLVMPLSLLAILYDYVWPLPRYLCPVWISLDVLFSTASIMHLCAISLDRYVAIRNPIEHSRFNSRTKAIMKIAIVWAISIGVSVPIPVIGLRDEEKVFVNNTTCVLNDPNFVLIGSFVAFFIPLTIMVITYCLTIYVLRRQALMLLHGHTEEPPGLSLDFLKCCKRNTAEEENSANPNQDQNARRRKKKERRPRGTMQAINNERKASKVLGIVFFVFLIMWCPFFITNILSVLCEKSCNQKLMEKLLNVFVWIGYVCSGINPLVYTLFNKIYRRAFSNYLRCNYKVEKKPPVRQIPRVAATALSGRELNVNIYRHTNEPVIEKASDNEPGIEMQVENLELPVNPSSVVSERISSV
T1 sequence (P32121 whole entry partner): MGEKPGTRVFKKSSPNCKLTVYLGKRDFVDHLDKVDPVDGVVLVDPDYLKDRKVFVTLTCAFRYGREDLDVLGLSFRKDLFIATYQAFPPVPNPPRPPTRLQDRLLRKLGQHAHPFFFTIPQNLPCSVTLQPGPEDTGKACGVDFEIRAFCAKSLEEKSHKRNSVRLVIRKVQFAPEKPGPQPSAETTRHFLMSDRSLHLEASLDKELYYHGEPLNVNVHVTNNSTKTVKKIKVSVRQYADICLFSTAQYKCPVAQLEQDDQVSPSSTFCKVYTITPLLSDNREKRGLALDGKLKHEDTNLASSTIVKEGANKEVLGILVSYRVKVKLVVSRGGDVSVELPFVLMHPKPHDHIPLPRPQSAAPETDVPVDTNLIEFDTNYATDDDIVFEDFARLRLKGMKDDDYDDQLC

One may read the EC50 as the concentration at which the effect is half-maximal. The Emax is the size of the effect at its maximum, as opposed to the concentration needed. As for `COc1nc(C2CCOCC2)c(F)cc1CNC(=O)[C@@H]1CCCN1` [Example 159, (2S)—N-[(5-Fluoro-2-methoxy-6-tetrahydropyran-4-yl-3-pyridyl)methyl]-pyrrolidine-2-carboxamide Hydrochloride], in data set [1], the CLint scaled at 0.5 μM is less than 5 L/h/kg. Besides, on 5-HT2C receptor, the EC50 was in the range of 200 to 1000 nM and the Emax was more than 70%.
`COc1nc(N2CCC(F)CC2)c(F)cc1CNC(=O)[C@@H]1CCCN1` [Example 160, (2S)—N-[[5-Fluoro-6-(4-fluoro-1-piperidyl)-2-methoxy-3-pyridyl]methyl]-pyrrolidine-2-carboxamide; 2,2,2-trifluoroacetic Acid]: in data set [1], the CLint scaled at 0.5 μM was less than 5 L/h/kg. On 5-HT2C receptor, the EC50 was 20 to 200 nM and the Emax was in the range of 50 to 70%.
Turning to `COc1nc(N2CCCC(F)C2)c(F)cc1CNC(=O)[C@@H]1CCCN1` (stereo partly drawn) [Example 161, (2S)—N-[[5-Fluoro-6-(3-fluoro-1-piperidyl)-2-methoxy-3-pyridyl]methyl]-pyrrolidine-2-carboxamide; 2,2,2-trifluoroacetic Acid], in data set [1], the CLint scaled at 0.5 μM is less than 5 L/h/kg. In addition, on 5-HT2C receptor, the EC50 fell in the range of 20 to 200 nM and the Emax is 50 to 70%.
In the same order, the values of `COc1nc(N2CCC(F)C2)c(F)cc1CNC(=O)[C@@H]1CCCN1` (stereo partly drawn) [Example 162, (2S)—N-[[5-Fluoro-6-(3-Fluoropyrrolidin-1-yl)-2-methoxy-3-pyridyl]methyl]-pyrrolidine-2-carboxamide; 2,2,2-trifluoroacetic Acid] are 5 to 50 L/h/kg, 20 to 200 nM and 50 to 70%.
Regarding `COc1nc(N2CCC(C(F)(F)F)C2)c(F)cc1CNC(=O)[C@@H]1CCCN1` (stereo partly drawn) [Example 163, (2S)—N-[[5-Fluoro-2-methoxy-6-[3-(trifluoromethyl)pyrrolidin-1-yl]-3-pyridyl]methyl]pyrrolidine-2-carboxamide; 2,2,2-trifluoroacetic Acid], in data set [1], the CLint scaled at 0.5 μM is 5 to 50 L/h/kg. At 5-HT2C receptor, the EC50 was less than 20 nM and the Emax was more than 70%.
With `COc1nc(N2CCC(F)(F)C2)c(F)cc1CNC(=O)[C@@H]1CCCN1` [Example 164, (2S)—N-[[6-(3,3-Difluoropyrrolidin-1-yl)-5-fluoro-2-methoxy-3-pyridyl]methyl]pyrrolidine-2-carboxamide; 2,2,2-trifluoroacetic Acid], the CLint scaled at 0.5 μM in data set [1] was less than 5 L/h/kg. In addition, at 5-HT2C receptor, the EC50 fell in the range of 20 to 200 nM and the maximal effect (Emax) is more than 70%.
Turning to `COc1nc(N2CCC(F)(F)CC2)c(F)cc1CN(C)C(=O)[C@@H]1CCCN1` [Example 165, (2S)—N-[[6-(4,4-Difluoro-1-piperidyl)-5-fluoro-2-methoxy-3-pyridyl]methyl]-N-methyl-pyrrolidine-2-carboxamide; 2,2,2-trifluoroacetic Acid], the CLint scaled at 0.5 μM in data set [1] was less than 5 L/h/kg. On 5-HT2C receptor, the EC50 lay in the range of 20 to 200 nM and the Emax is 50 to 70%.
Take `COc1nc(NC2CCC(F)(F)CC2)c(F)cc1CN(C)C(=O)[C@@H]1CCCN1` [Example 166, (2S)—N-[[6-[(4,4-Difluorocyclohexyl)amino]-5-fluoro-2-methoxy-3-pyridyl]methyl]-N-methyl-pyrrolidine-2-carboxamide; 2,2,2-trifluoroacetic Acid]: in data set [1], the CLint scaled at 0.5 μM is less than 5 L/h/kg. For the same compound, at 5-HT2C receptor, the EC50 lay within 20 to 200 nM and the Emax was 50 to 70%.
The corresponding values for `COc1nc(C2=CCC(OC)CC2)c(F)cc1CNC(=O)[C@@H]1CCCN1` (stereo partly drawn) [Example 167, (2S)—N-[[5-Fluoro-2-methoxy-6-(4-methoxycyclohexen-1-yl)-3-pyridyl]methyl]-pyrrolidine-2-carboxamide] are less than 5 L/h/kg, 200 to 1000 nM and more than 70%.
In the same order, the values of `COCCCc1nc(OC)c(CNC(=O)[C@@H]2CCCN2)cc1F` [Example 168, (2S)—N-[[5-Fluoro-2-methoxy-6-(3-methoxypropyl)-3-pyridyl]methyl]pyrrolidine-2-carboxamide] are less than 5 L/h/kg, 200 to 1000 nM and more than 70%.
As to `COc1nc(NCC2CCC(F)(F)CC2)c(F)cc1CNC(=O)[C@@H]1CCCN1` [Example 169, (2S)—N-[[6-[(4,4-Difluorocyclohexyl)methylamino]-5-fluoro-2-methoxy-3-pyridyl]methyl]pyrrolidine-2-carboxamide; 2,2,2-trifluoroacetic Acid], in data set [1], the CLint scaled at 0.5 μM is less than 5 L/h/kg. Also, on 5-HT2C receptor, the EC50 was less than 20 nM and the Emax is more than 70%.
Take `COc1nc(NCc2ccccc2)c(F)cc1CNC(=O)[C@@H]1CCCN1` [Example 170, (2S)—N-[[6-(Benzylamino)-5-fluoro-2-methoxy-3-pyridyl]methyl]pyrrolidine-2-carboxamide; 2,2,2-trifluoroacetic Acid]: the CLint scaled at 0.5 μM in data set [1] was less than 5 L/h/kg. At 5-HT2C receptor, the EC50 lay within 20 to 200 nM and the Emax is more than 70%.
As for `CCCN(Cc1ccccc1)c1nc(OC)c(CNC(=O)[C@@H]2CCCN2)cc1F` [Example 171, (2S)—N-[[6-[Benzyl(propyl)amino]-5-fluoro-2-methoxy-3-pyridyl]methyl]-pyrrolidine-2-carboxamide Hydrochloride], the CLint scaled at 0.5 μM in data set [1] was 5 to 50 L/h/kg. At 5-HT2C receptor, the EC50 was in the range of 200 to 1000 nM and the Emax was more than 70%.
As for `COc1nc(C2CCC(OC)CC2)c(F)cc1CNC(=O)[C@@H]1CCCN1` (stereo partly drawn) [Example 172, (2S)—N-[[5-Fluoro-2-methoxy-6-(4-methoxycyclohexyl)-3-pyridyl]methyl]-pyrrolidine-2-carboxamide], in data set [1], the CLint scaled at 0.5 μM was less than 5 L/h/kg. In addition, on 5-HT2C receptor, the half-maximal effective concentration (EC50) was in the range of 20 to 200 nM and the Emax is more than 70%.
In the same order, the values of `COc1nc(N2CCOC(c3ccccc3)C2)c(F)cc1CNC(=O)[C@@H]1CCCN1` (stereo partly drawn) [Example 173, (2S)—N-[[5-Fluoro-2-methoxy-6-(2-phenylmorpholin-4-yl)-3-pyridyl]methyl]-pyrrolidine-2-carboxamide; 2,2,2-trifluoroacetic Acid] are 5 to 50 L/h/kg, 200 to 1000 nM and 50 to 70%.
Take `COc1nc(N2CC(C)OC(C)C2)c(F)cc1CNC(=O)[C@@H]1CCCN1` (stereo partly drawn) [Example 174, (2S)—N-[[6-(2,6-Dimethylmorpholin-4-yl)-5-fluoro-2-methoxy-3-pyridyl]methyl]-pyrrolidine-2-carboxamide; 2,2,2-trifluoroacetic Acid]: in data set [1], the CLint scaled at 0.5 μM is less than 5 L/h/kg. On 5-HT2C receptor, the EC50 lay within 200 to 1000 nM and the Emax fell in the range of 30 to 50%.
Consider `COc1nc(N2CC(Oc3ccccc3)C2)c(F)cc1CNC(=O)[C@@H]1CCCN1` [Example 175, (2S)—N-[[5-Fluoro-2-methoxy-6-(3-phenoxyazetidin-1-yl)-3-pyridyl]methyl]-pyrrolidine-2-carboxamide; 2,2,2-trifluoroacetic Acid], for which, in data set [1], the CLint scaled at 0.5 μM lay within 5 to 50 L/h/kg. Besides, on 5-HT2C receptor, the EC50 was 20 to 200 nM and the Emax fell in the range of 50 to 70%.
As for `COc1nc(N2CC(C)(Oc3ccccc3)C2)c(F)cc1CNC(=O)[C@@H]1CCCN1` [Example 176, (2S)—N-[[5-Fluoro-2-methoxy-6-(3-methyl-3-phenoxy-azetidin-1-yl)-3-pyridyl]methyl]pyrrolidine-2-carboxamide; 2,2,2-trifluoroacetic Acid], the CLint scaled at 0.5 μM in data set [1] lay within 5 to 50 L/h/kg. For the same compound, on 5-HT2C receptor, the EC50 is less than 20 nM and the Emax was more than 70%.
